Tests used:
[1] = system: osteoclasts (mouse bone cells), resorption pit formation; assay: Bone resorption pit formation by mouse bone cells (osteoclasts) on ivory, active type-vitamin D3 stimulation; type: cell-based, ICR mice; settings: 10 nM active type-vitamin D3, 4 days
Description: The balance between bone formation and bone destruction is disturbed during osteoporosis, with bone destruction considered to be accelerated. Bone destruction is believed to occur due to an increase in the activation and number of osteoclasts. Experiments have been conducted wherein bone resorption was induced with active type-vitanium D3 stimulation using mouse bone cells dispersed on ivory for the experimental model. The bone resorption inhibitory action of compounds of the present invention was measured using this model.
After isolating the femur and tibia from 10-15 day old ICR mice, the bone specimens were prepared into thin sections in α-MEM medium containing 5% fetal bovine serum to prepare an bone cells suspension containing marrow cells and bone matrix. Large fragments of bone were removed with nylon mesh. Viable total cells were counted with trypan blue exclusion test while osteoclasts were stained with tartaric acid-resistantacid phosphatase stain to prepare a cell suspension containing osteoclasts in a proportion of roughly 0.05-0.1%. The ivory was cut into thin sections having a thickness of 150 μm using a low-speed rotary diamond cutter. The thin sections were then punched to a size that matched the size of the wells of a 96 well plate. These ivory fragments were placed in a 96 well plate followed by addition of the cell suspension prepared above so that each well contained 500 osteoclasts. 10 nM active type-vitamin D3 was added as stimulant simultaneous to addition of the drugs of the present invention at concentrations of 10 μM and 100 μM. After culturing the cells for 4 days at 37° C. in an environment of 10% CO2, the resorption pits that formed on the ivory slices were stained with hematoxylin and counted by observing microscopically. The resorption pit formation inhibition rate was then calculated using the formula indicated below. [formula]
The results were statistically processed using the Student's t-test, and those results that were significant at a level of significance of P<0.05 with respect to an active type-vatanium D3 stimulation control group were indicated with one asterisk (*), while those results that were significant at a level of significance of P<0.01 were indicated with two asterisks (**).

[2] = system: IL-1 production by J774-1 mouse macrophage cells; assay: Action on IL-1 Production by Strain J774-1 Mouse Macrophage Cells (LPS stimulated); type: cell-based; settings: 100 μM compound, LPS 1 μg/ml, 24 hours, read-out: IL-1 Production Inhibition Rate with respect to Control Group
Method: It is also known that these cells produce IL-1 when stimulated with LPS. The inhibitory action on IL-1 production of compounds of the present invention was measured according to the following procedure using this cell line.
The J774-1 cells were cultured in RPMI-1640 medium containing 10% fetal bovine serum and 50 μM 2-mercaptoethanol followed by adjusting the number of cells to 2×10^5 cells/ml. 1 ml aliquots of this cell suspension were then placed in the wells of a 24 well plate and cultured for 30 minutes. Following culturing, LPS was added to a final concentration of 1 μg/ml. At the same time, compounds obtained in Examples were dissolved in sterilized distilled water and added at a concentration of 100 μM. […]
The samples obtained above were serially diluted by a factor of 2 in a 96 well multiplate at a capacity of 50 μl. […] The thymus cells were then cultured for 72 hours and IL-1 activity was determined from the growth rate of the cells. […] Using the absorbance of the pigment produced by this reduction at 570 nm as the index, the dilution factor of the sample when growth of thymus cells is induced by 50% was calculated in terms of the number of units of that sample by taking the case of induction of maximum growth of T cells by human gene recombinant IL-1 to be 100% growth, and growth in the case of not adding IL-1 to be 0%. […]

CSc1ccc(SC(P(=O)(O)O)P(=O)(O)O)cc1 [Example 2, (4-methylthiophenyl)thiomethanediphosphonic acid]
resorption pit formation Inhibition Rate with respect to Control Group ([1]; 10 μM compound): 79.9 ± 3.12%
resorption pit formation Inhibition Rate with respect to Control Group ([1]; 100 μM compound): 92.6 ± 1.08%
inhibition at 100 µM [2]: 51.4%

Source: patent publication US5527940A, “Methanediphosphonate derivative, its manufacturing process and its pharmaceutical applications” (Toray Industries, Inc., priority 1991, dated 1996)
